{"source": "patent US10280217B2", "about": "“Cell culture additives and their use for increased bioprotein production from cells” (priority 2017, dated 2019)", "key": {"CHO-HBS cells [1]": {"test_system": "CHO-HBS cells", "assay": "Batch CHO cell process in 3 L bioreactors with gaseous or dissolved candidate Additives (VCD, antibody titer, qP)", "format": "cell-based, Chinese hamster", "conditions": "vs control; for impact on protein biomolecule production or cell growth: gas sparged into 3 L batch cultures; for antibody titer / viable cell density (VCD) / cell growth / calculated specific cellular productivity (qP): 3 L batch cultures", "description": "The following candidate gaseous and chemical additives were screened using a batch CHO cell process in a 3 L (2 L working volume) bioreactors. CHO-HBS cells were cultured in CDM4MAb media (HyClone Labaratories; Logan Utah; custom part containing base media cat# SH30801.02 supplemented with an additional 0.5 g/L poloxamer 188) in vented, plain-bottom Erlenmeyer flasks at 3-30×10^5 cells/mL. The cells were cultured for 14-16 days and then inoculated into 3 L semi-batch bioreactors at 3-4×10^5 cells/mL with 2 L working volumes. The bioreactor system monitored and controlled temperature, pH, % CO2, %02, sparge rate, and aeration rate. The bioreactors maintained a sparge rate of 0.1 vvm, 40% DO, and a pH value of 7.10. The pH was controlled by addition of CO2 or 1 N sodium bicarbonate solution. Additionally, 1 M glucose was added and adjusted daily to allow for a glucose consumption rate of 3 g/L/day. Each bioreactor was sampled daily (3-4 mL removed/day) for analysis. Gaseous additives were injected into the bioreactors using the following methods: • Inert Gas Injection (xenon): The bioreactor system controlled the flowrate and composition of oxygen, carbon dioxide, air, and nitrogen that was sparged into each bioreactor. The mixture composition was determined by the dissolved oxygen and pH levels in each reactor. House gas lines for these four gases were filtered and fed into the bioreactor mass flow control system. The effects of xenon were tested by replacing the nitrogen house gas feed with a cylinder containing xenon and replacing the air gas feed with a cylinder containing 21% oxygen and 79% xenon respectively. The system was calibrated for controlling the flowrate of the replacement gas by measuring the bioreactor mass flow controller flowrate for each gas at 12slph using a film flowmeter, then adjusting the gas correction factor for the bioreactor nitrogen or air mass flow controller until the flowrate on the film flowmeter and bioreactor system were the same. […] This allowed the CHO cells to be cultured with the maximum quantity of inert gas. • Reactive Gas Injection (nitric oxide, carbon monoxide, or hydrogen): The bioreactor module controlled the composition and flow of oxygen, air, nitrogen, and carbon dioxide gases as described previously. Reactive gases including nitric oxide, carbon monoxide, or hydrogen were introduced into the gas stream through a tee line connection before the gas mixture entered the bioreactors. The reactive gas flowrate was controlled using a mass flow controller and the flowrate of the bioreactor controlled mixture was adjusted to maintain the total gas flowrate into each reactor at 12slph."}, "HO-1": {"test_system": "HO-1", "assay": "HO-1 expression in shake flask cultures", "format": "cell-based, Chinese hamster", "conditions": "shake flasks, vs control", "description": "(§1) Cells were grown in CDM4MAb medium supplemented with poloxamer-188. Flasks were incubated on a shaker at 125 rpm in a humidified incubator at 37° C. and 5% CO2. DETA-NO was dissolved in 0.01 M sodium hydroxide solution at a 0.2 M concentration. Aliquots of DETA-NO solution were added daily to cell cultures to reach a final concentration of 0.09, 0.18 or 0.36 mM DETA-NO. Sodium hydroxide solution (0.01M) was added daily as a negative control. 0.01-1.0 mM DETA-NO release NO at a rate in the low nM/sec range (Bouton, C. and Demple, B., 2000. Nitric oxide-inducible expression of heme oxygenase-1 in human cells translation-independent stabilization of the mRNA and evidence for direct action of nitric oxide. Journal of Biological Chemistry, 275(42), pp. 32688-32693).\n(§2) The effects of gaseous NO were partially recapitulated by adding NO-releasing compound DETA-NO daily to cell cultures in shake flasks. Cell growth and viability followed similar trends with addition of DETA-NO as with gaseous NO."}, "CHO-HBS cells [2]": {"test_system": "CHO-HBS cells", "assay": "DETA-NO added daily to shake flask cultures (cell growth, viability)", "format": "cell-based, Chinese hamster", "conditions": "shake flasks", "description": "as §1, §2"}, "[3]": {"conditions": "cited from earlier work"}, "Heme Oxygenase 1 (HO-1)": {"test_system": "Heme Oxygenase 1 (HO-1)", "assay": "HO-1 expression in 3 L cultures (RNA-seq, Western blot)", "format": "cell-based, Chinese hamster", "conditions": "3 L cultures exposed to the gas, vs control", "description": "(§3) Gene expression profiles were captured using RNA-seq. Conesa A, Madrigal P, Tarazona S, et al. A survey of best practices for RNA-seq data analysis. Genome Biology. 2016; 17:13. doi:10.1186/s13059-016-0881-8. RNA was extracted with a RNeasy Plus Mini kit (Qiagen) and quantified by absorbance at 260 nm with a NanoDrop 2000 (Thermo Fisher Scientific). The RNA quality was assessed using a RNA 6000 Nano Kit (Agilent) and a Bioanalyzer (Agilent). RNA was fragmented and libraries were prepared using commercial kits (TruSeq RNA Library Prep Kit v2, Illumina). RNA was sequenced on a HiSeq 2500 (Illumina) at the DNA Sequencing & Genotyping Center of the University of Delaware. Data were analyzed at the Bioinformatics Core Facility, Center for Bioinformatics and Computational Biology of the University of Delaware. As the specific genome sequence of the CHO DG44 line was not available, a Chinese Hamster genome draft was used as a reference. Genes with differential expression (false discovery rate <0.001) were further analyzed with DAVID 6.8 (https://david.ncifcrf.gov/), STRING 10.0 (http://string-db.org/) and iProXpress (http://pir.georgetown.edu/iproxpress2/).\nExemplary transcript profiles of cells on days 1, 3 and 5 of 3 L cell cultures were generated between control and gaseous NO treated cultures to perform differential gene expression analysis (FIG. 16). […]"}, "[4]": {"assay": "Glycosylation analysis (released glycans, HILIC)", "format": "physicochemical", "conditions": "CHO-HBS cells treated with 300 ppm NO vs control", "source_text": "Glycans were enzymatically released from purified IgGs, labeled with a fluorescent dye, and separated by hydrophilic interaction liquid chromatography (GlycoWorks RapiFluor-MS N-Glycan Kit, Waters). Glycans of IgGs purified from CHO-HBS cells were consistent with the typical patterns reported in the literature for proteins expressed in CHO cells. A heterogeneous population of glycans with high proportion of GOF structure followed by G1F and G2F was observed (FIG. 26)."}, "Caspase-3": {"target": "T1, Caspase-3 (Cricetulus griseus, UniProt Q6JH80)", "T1 construct": "endogenous in cells; host or cells: CHO-HBS cells (CHO DG44 derived), 3 L bioreactor cultures", "T1 sequence (Q6JH80 29-175 limits assumed)": "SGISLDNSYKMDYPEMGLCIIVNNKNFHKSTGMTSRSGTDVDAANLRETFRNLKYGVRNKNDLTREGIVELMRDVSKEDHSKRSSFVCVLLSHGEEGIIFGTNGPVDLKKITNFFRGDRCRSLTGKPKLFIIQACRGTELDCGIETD", "T1 sequence (Q6JH80 176-277 limits assumed)": "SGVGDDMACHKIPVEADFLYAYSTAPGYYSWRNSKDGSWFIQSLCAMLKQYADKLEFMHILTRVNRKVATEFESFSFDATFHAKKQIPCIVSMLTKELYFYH", "assay": "Caspase-3 activity (EnzCheck Caspase-3 Assay Kit #1) in 3 L cultures", "format": "cell-based, Chinese hamster", "conditions": "3 L cultures ± NO 300 ppm, same number of viable cells", "source_text": "The NO-specific extension of viability correlates with a decrease in Caspase-3 activity (FIG. 20). Capase-3 activity was monitored with an EnzCheck Caspase-3 Assay Kit #1 (Thermo Fisher Scientific) using samples containing the same number of viable cells. All caspase proteases contain a single cystein at the enzyme catalytic site that is essential for activity. […] Thus, the observed lower caspase-3 activity may be due to a specific blockage of the catalytic cysteine residue through formation of nitrosylthiols."}, "[5]": {"test_system": "glutathione-related enzymes (S-transferase proteins, catalases, oxidation resistance genes)", "assay": "Expression of glutathione-related enzymes in 3 L cultures (RNA-seq, Western blot)", "format": "cell-based, Chinese hamster", "conditions": "gaseous NO vs control", "description": "as §3\nNO can oxidize intracellular molecules and thereby change the antioxidant levels within the cell, resulting in oxidative stress that potentially leads to membrane dysfunction, DNA damage and inactivation of proteins. […]"}, "[6]": {"assay": "Antibody assembly by SDS-PAGE (non-reducing / reducing)", "format": "physicochemical", "conditions": "NO-sparged vs control", "source_text": "In the absence of reducing agents, the pool of IgGs consists of three structures: fully assembled IgGs, IgGs missing one light chain, and IgGs missing two light chains. Variations in the proportion of the three structures depend on the production process and intrinsic properties of the IgG molecules. […] In the presence of reducing agents, the three structures collapsed into two forms of approximately 52 and 26 kDa, corresponding to the heavy and light chains, respectively. No major differences were detected between antibodies produced in NO-sparged reactors compared to controls. Byproducts with an apparent molecular mass of 25 kDa were detected on day 10. These species, which might be degradation products of light chains, seemed to be an intrinsic feature of HBS antibodies independent from the NO-based process."}}, "note": "Read-outs that look alike come from different tables or passages of the source.", "data": [{"smiles": "[Xe]", "note": "[Xenon]", "values": [{"measurement": "impact on protein biomolecule production or cell growth", "setting": "CHO-HBS cells [1]", "result": "do not have a significant impact"}]}, {"smiles": "O=NO", "note": "[Nitrite, Sodium Nitrite]", "values": [{"measurement": "HO-1 expression (oxidative stress response)", "setting": "HO-1", "result": "does not activate"}, {"measurement": "antibody titer", "setting": "CHO-HBS cells [1]", "result": "no significant impact"}, {"measurement": "viable cell density (VCD) / cell growth", "setting": "CHO-HBS cells [1]", "result": "at most a small effect on VCD in the late phase of culture"}]}, {"smiles": "[HH]", "note": "[Hydrogen]", "values": [{"measurement": "impact on protein biomolecule production or cell growth", "setting": "CHO-HBS cells [1]", "result": "do not have a significant impact"}]}, {"smiles": "NCCN(CCN)/[N+]([O-])=N/O", "note": "[DETA-NO, diethylenetriamine-nitric oxide adduct]", "values": [{"measurement": "viable cell counts", "setting": "CHO-HBS cells [2]; daily addition, relative to control cultures", "result": "lower at the stationary phase but increased in the late phase of the culture"}, {"measurement": "cell death", "setting": "CHO-HBS cells [2]; higher concentrations tested", "result": "increased cell death"}, {"measurement": "HO-1 expression (oxidative stress response)", "setting": "HO-1", "result": "HO-1 up regulation"}, {"measurement": "half-life", "setting": "[3]; 37° C., pH 7.4", "result": 1200, "unit": "min"}]}, {"smiles": "[N]=O", "note": "[Nitric Oxide]", "values": [{"measurement": "expression of HO-1 (oxidative stress response)", "setting": "Heme Oxygenase 1 (HO-1)", "result": "induces expression"}, {"measurement": "fucosylated glycans of IgGs", "setting": "[4]", "result": "minor reduction"}, {"measurement": "Caspase-3 activity", "setting": "Caspase-3", "result": "decrease"}, {"measurement": "calculated specific cellular productivity (qP)", "setting": "CHO-HBS cells [1]", "result": "boosted qP"}, {"measurement": "viable cell density (VCD) / cell growth", "setting": "CHO-HBS cells [1]", "result": "shifted the cell culture VCD profile"}, {"measurement": "expression of glutathione-related enzymes", "setting": "[5]", "result": "stimulates expression"}, {"measurement": "overall IgG structure", "setting": "[6]", "result": "did not seem to impact"}]}, {"smiles": "CNCCCCCCN(C)/[N+]([O-])=N/O", "note": "[MAHMA NONOate]", "values": [{"measurement": "half-life", "setting": "[3]; 37° C., pH 7.4", "result": 1, "unit": "min"}]}, {"smiles": "[O]N=O", "note": "[Nitrogen Dioxide]", "values": [{"measurement": "antibody titer", "setting": "CHO-HBS cells [1]", "result": "strongly negative effect"}, {"measurement": "viable cell density (VCD) / cell growth", "setting": "CHO-HBS cells [1]", "result": "strongly negative effect"}]}, {"smiles": "CCCN(CCCN)/[N+]([O-])=N/O", "note": "[PAPA NONOate]", "values": [{"measurement": "half-life", "setting": "[3]; 37° C., pH 7.4", "result": 15, "unit": "min"}]}, {"smiles": "[Kr]", "note": "[Krypton]", "values": [{"measurement": "impact on protein biomolecule production or cell growth", "setting": "CHO-HBS cells [1]", "result": "did not significantly affect"}]}, {"smiles": "CC(C)N(CCCN)/[N+]([O-])=N/O", "note": "[NOC-5]", "values": [{"measurement": "half-life", "setting": "[3]; PBS (pH 7.4), 22° C.", "result": 93, "unit": "min"}]}, {"smiles": "CCN(CC)/[N+]([O-])=N/O.CCNCC", "note": "[DEA-NO]", "values": [{"measurement": "half-life", "setting": "[3]; buffer, pH 7.4", "result": 2, "unit": "min"}]}, {"smiles": "[C-]#[O+]", "note": "[Carbon Monoxide]", "values": [{"measurement": "expression of HO-1 (oxidative stress response)", "setting": "Heme Oxygenase 1 (HO-1)", "result": "did not lead to an increase"}, {"measurement": "antibody titer", "setting": "CHO-HBS cells [1]", "result": "less impacted"}, {"measurement": "calculated specific cellular productivity (qP)", "setting": "CHO-HBS cells [1]", "result": "higher than control"}, {"measurement": "viable cell density (VCD) / cell growth", "setting": "CHO-HBS cells [1]", "result": "suppressed during the growth phase, but shows higher VCD at the end of the culturing period"}, {"measurement": "overall yield from batch culture", "setting": "CHO-HBS cells [1]; net effect of VCD to qP", "result": "overall smaller yield"}]}, {"smiles": "[O-]/[N+](=N\\O[C@@H]1O[C@H](CO)[C@H](O)[C@H](O)[C@H]1O)N1CCCC1", "note": "[β-Gal-NO]", "values": [{"measurement": "half-life", "setting": "[3]; pH 5.6, following activation by β-galactosidase", "result": "six"}]}, {"smiles": "[Ar]", "note": "[Argon]", "values": [{"measurement": "impact on protein biomolecule production or cell growth", "setting": "CHO-HBS cells [1]", "result": "did not significantly affect"}]}, {"smiles": "O=[N+]([O-])[O-].[Na+]", "note": "[Nitrate, Sodium Nitrate]", "values": [{"measurement": "antibody titer", "setting": "CHO-HBS cells [1]", "result": "no effect"}, {"measurement": "viable cell density (VCD) / cell growth", "setting": "CHO-HBS cells [1]", "result": "no effect"}]}]}
